Data from PubChem BioAssay (NCI).
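Briefly, cells in 96-well plates were exposed to five compound concentrations for 48 h, and endpoints were estimated by linear interpolation. GI50: concentration for 50% inhibition of growth. TGI marks complete inhibition of growth.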

Legend:
Assay in all cases: inhibition of tumour cell growth, NCI panel, 48 h
OVCAR-3 ovarian = tested on: OVCAR-3 ovarian
UO-31 renal = tested on: UO-31 renal
SN12C renal = tested on: SN12C renal
SNB-19 CNS = tested on: SNB-19 CNS
M14 melanoma = tested on: M14 melanoma
HCT-15 colon = tested on: HCT-15 colon
NCI-H23 lung = tested on: NCI-H23 lung
HT29 colon = tested on: HT29 colon
OVCAR-5 ovarian = tested on: OVCAR-5 ovarian
PC-3 prostate = tested on: PC-3 prostate

O=C(Nc1ccc(Nc2ccc(NC(=O)c3ccccc3)c3c2C(=O)c2ccccc2C3=O)c2c1C(=O)c1ccccc1C2=O)c1ccccc1
TGI (OVCAR-3 ovarian): > 100 µM
TGI (UO-31 renal): > 100 µM
TGI (SN12C renal): > 100 µM
TGI (SNB-19 CNS): > 100 µM
TGI (M14 melanoma): > 100 µM
TGI (HCT-15 colon): > 100 µM

Oc1ccc(/C=N/NC(=S)Nc2ccccc2)nc1
GI50 (OVCAR-3 ovarian): 0.405 µM
TGI (OVCAR-3 ovarian): > 100 µM
GI50 (NCI-H23 lung): 3.34 µM
TGI (NCI-H23 lung): > 100 µM
GI50 (UO-31 renal): 0.661 µM
TGI (UO-31 renal): 16.8 µM
GI50 (SN12C renal): 1.07 µM
TGI (SN12C renal): > 100 µM
GI50 (SNB-19 CNS): 1.93 µM
TGI (SNB-19 CNS): > 100 µM
GI50 (HT29 colon): 5.83 µM
TGI (HT29 colon): > 100 µM
GI50 (OVCAR-5 ovarian): 7.09 µM
TGI (OVCAR-5 ovarian): > 100 µM
GI50 (HCT-15 colon): 0.407 µM
TGI (HCT-15 colon): > 100 µM
GI50 (PC-3 prostate): 0.706 µM
TGI (PC-3 prostate): > 100 µM

Cc1cc2c3c(nc4ccccc42)C(=O)c2cccnc2-c3n1
TGI (OVCAR-3 ovarian): 0.0263 µM
GI50 (NCI-H23 lung): 0.142 µM
TGI (NCI-H23 lung): 0.466 µM
GI50 (SN12C renal): 0.146 µM
TGI (SN12C renal): 1.82 µM
GI50 (SNB-19 CNS): 0.255 µM
TGI (SNB-19 CNS): 1.66 µM
GI50 (HT29 colon): 0.663 µM
TGI (HT29 colon): 2.03 µM
GI50 (OVCAR-5 ovarian): 1.09 µM
TGI (OVCAR-5 ovarian): 2.33 µM
GI50 (M14 melanoma): 0.479 µM
GI50 (HCT-15 colon): 0.015 µM
TGI (HCT-15 colon): 0.162 µM
GI50 (PC-3 prostate): 0.304 µM
TGI (PC-3 prostate): 3.04 µM

Oc1ccc(I)c2cccnc12
TGI (OVCAR-3 ovarian): > 100 µM
TGI (NCI-H23 lung): 55.2 µM
TGI (UO-31 renal): 32.5 µM
TGI (SN12C renal): > 100 µM
TGI (SNB-19 CNS): > 100 µM
TGI (HT29 colon): > 100 µM
TGI (OVCAR-5 ovarian): > 100 µM
TGI (M14 melanoma): 25.4 µM
TGI (HCT-15 colon): > 100 µM

[pH]1p2[pH]p3p1p3[pH]2.c1cc[c]([Ge]([c]2ccccc2)[c]2ccccc2)cc1.c1cc[c]([Ge]([c]2ccccc2)[c]2ccccc2)cc1.c1cc[c]([Ge]([c]2ccccc2)[c]2ccccc2)cc1
GI50 (OVCAR-3 ovarian): 10.9 µM
TGI (OVCAR-3 ovarian): 23.4 µM
GI50 (NCI-H23 lung): 15.3 µM
TGI (NCI-H23 lung): 31.2 µM
GI50 (UO-31 renal): 16.3 µM
TGI (UO-31 renal): 29.8 µM
GI50 (SN12C renal): 15.1 µM
TGI (SN12C renal): 29.7 µM
GI50 (SNB-19 CNS): 14.1 µM
TGI (SNB-19 CNS): 27.2 µM
GI50 (HT29 colon): 17.6 µM
TGI (HT29 colon): 34 µM
GI50 (OVCAR-5 ovarian): 18.2 µM
TGI (OVCAR-5 ovarian): 34.1 µM
GI50 (M14 melanoma): 13.6 µM
TGI (M14 melanoma): 27.3 µM

O=C(CCl)N1CCN(c2ccccn2)CC1
TGI (NCI-H23 lung): 39.9 µM
TGI (UO-31 renal): 36.3 µM
TGI (SNB-19 CNS): > 100 µM
TGI (HT29 colon): 32.3 µM
TGI (OVCAR-5 ovarian): 35.1 µM
TGI (M14 melanoma): 35.5 µM
TGI (HCT-15 colon): > 10 µM
TGI (PC-3 prostate): > 100 µM

COC12OCCN(C)C1=CC(=O)C1N=NCC12 (configuration not stated)
TGI (OVCAR-3 ovarian): > 100 µM
TGI (NCI-H23 lung): > 100 µM
TGI (UO-31 renal): > 100 µM
TGI (SN12C renal): > 100 µM
TGI (HT29 colon): > 100 µM
TGI (M14 melanoma): > 100 µM
TGI (HCT-15 colon): > 100 µM

COc1ccc(-c2cc(-c3ccc(Cl)cc3)nc(SCCCC(=O)NO)n2)cc1OC
GI50 (OVCAR-3 ovarian): 0.423 µM
TGI (OVCAR-3 ovarian): 2.52 µM
GI50 (NCI-H23 lung): 1.29 µM
TGI (NCI-H23 lung): 5.53 µM
GI50 (UO-31 renal): 0.277 µM
TGI (UO-31 renal): 1.09 µM
GI50 (SN12C renal): 0.819 µM
TGI (SN12C renal): 5.64 µM
GI50 (SNB-19 CNS): 1.57 µM
TGI (SNB-19 CNS): 4.43 µM
GI50 (HT29 colon): 1.46 µM
TGI (HT29 colon): > 26 µM
GI50 (OVCAR-5 ovarian): 0.931 µM
TGI (OVCAR-5 ovarian): 4.36 µM
GI50 (HCT-15 colon): 0.337 µM
TGI (HCT-15 colon): 1.56 µM
GI50 (PC-3 prostate): 0.944 µM
TGI (PC-3 prostate): 3.03 µM

c1ccc(-c2sc(-c3ccccc3)c3c2C(c2ccccc2)c2c(-c4ccccc4)sc(-c4ccccc4)c2C3c2ccccc2)cc1 (configuration not stated)
TGI (OVCAR-3 ovarian): > 100 µM
TGI (NCI-H23 lung): > 100 µM
TGI (UO-31 renal): > 100 µM
TGI (SN12C renal): > 100 µM
TGI (SNB-19 CNS): > 100 µM
TGI (HT29 colon): > 100 µM
TGI (OVCAR-5 ovarian): > 100 µM
TGI (M14 melanoma): > 100 µM
TGI (HCT-15 colon): > 100 µM
